Experimental findings from patent US20260193244A1 (Protego Biopharma, Inc., priority 2022, published 2026) are described below.

The structures appear in SMILES notation. Where a name gives a salt, the structure may show the parent alone.

The subject of the test is IRE1-XBP1s (HEK293 T-REx cells stably expressing the XBP1-RLuc splicing reporter). Kind of test: IRE1-XBP1s activation Assay (XBP1-RLuc splicing reporter, luminescence relative to thapsigargin, with or without IRE1 inhibitor 4μ8C). Type of test: cell-based. To be noted: 18 h, compound 10 μM, luminescence as percentage signal relative to thapsigargin (Tg) (500 nM, 18 h). How it is done: IRE1-XBP1s activation Assay: HEK293 T-REx cells stably expressing the XBP1-RLuc splicing reporter were treated with an IRE1-XBP1s activator provided herein (10 μM) in the presence or absence of the IRE1 active site inhibitor 4μ8C (32 μM) for 18 h. Luminescence was shown as the percentage signal relative to thapsigargin (Tg) (500 nM, 18 h).
Consider `Cc1ccc(OCCN(C)C(=O)Cn2cc(NC(=O)[C@H]3CC[C@@H](Oc4ccccc4)CC3)cn2)cc1` [Compound 1, (cis)-N-(1-(2-(methyl(2-(p-tolyloxy)ethyl)amino)-2-oxoethyl)-1H-pyrazol-4-yl)-4-phenoxycyclohexanecarboxamide], for which the activation at 10 µM is less than 30%.

In turn, `Cc1ccc(OCCN(C)C(=O)Cn2cc(NC(=O)c3cccc(Oc4ccccc4)c3)cn2)cc1` [Compound 2] yielded an activation at 10 µM of less than 30%. As for `Cc1ccc(OCCN(C)C(=O)Cn2cc(NC(=O)c3ccc(Oc4ccccc4)cc3)cn2)cc1` [Compound 3], the figure is less than 30%; as for `O=C(CCOc1ccccc1)Nc1cnn(CC(=O)N2CCCC(Oc3ccc(C(F)(F)F)cc3)C2)c1` (stereo not drawn) [Compound 4, N-(1-(2-oxo-2-(3-(4-(trifluoromethyl)phenoxy)piperidin-1-yl)ethyl)-1H-pyrazol-4-yl)-3-phenoxypropanamide hydrochloride], 30 to 50%; as for `Cc1ccc(OCCN(C)C(=O)Cn2cc(NC(=O)[C@H]3CC[C@H](Oc4ccccc4)CC3)cn2)cc1` [Compound 5], less than 30%. For `Cc1ccc(OCCN(C)C(=O)Cn2cc(NC(=O)[C@H]3C[C@@H](c4ccccc4)C3)cn2)cc1` [Compound 6] the value was not below 50%. For `Cc1ccc(OCCN(C)C(=O)Cn2cc(NC(=O)[C@@H]3CC[C@@H](Oc4ccccc4)C3)cn2)cc1` [Compound 8, (1R,3R)—N-(1-(2-(methyl(2-(p-tolyloxy)ethyl)amino)-2-oxoethyl)-1H-pyrazol-4-yl)-3-phenoxycyclopentanecarboxamide hydrochloride] the value was less than 30%; for `Cc1ccc(OC2CCN(C(=O)Cn3cc(NC(=O)CCOc4ccccc4)cn3)CC2)cc1` [Compound 9], less than 30%. `Cc1ccc(OC2CCCN(C(=O)Cn3cc(NC(=O)CCOc4ccccc4)cn3)C2)cc1` (stereo not drawn) [Compound 11] yielded an activation at 10 µM of 30 to 50%. As for `Cc1ccc(OCCN(C)C(=O)Cn2cc(NC(=O)[C@@H]3CCC[C@H](Oc4ccccc4)C3)cn2)cc1` [Compound 12], the figure is less than 30%. For `Cc1ccc(OCCN(C)C(=O)Cn2cc(NC(=O)[C@@H]3CCC[C@@H](Oc4ccccc4)C3)cn2)cc1` [Compound 13] the value was less than 30%; for `Cc1ccc(OCCN(C)C(=O)Cn2cc(N(C)C(=O)C3CN(Cc4ccccc4)CCO3)cn2)cc1` (stereo not drawn) [Compound 14], less than 30%. `Cc1ccc(OCCN(C)C(=O)Cn2cc(N(C)C(=O)[C@@H]3CCCN(C(=O)c4ccccc4)C3)cn2)cc1` [Compound 15] showed an activation at 10 µM of less than 30%. For `Cc1ccc(OCCN(C)C(=O)Cn2cc(N(C)C(=O)[C@@H]3CCC(=O)N(Cc4ccccc4)C3)cn2)cc1` [Compound 16] the value was less than 30%; for `Cc1ccc(OCCN(C)C(=O)Cn2cc(N(C)C(=O)C3CCC(Oc4ccccc4)CC3)cn2)cc1` (stereo not drawn) [Compound 17], less than 30%; for `Cc1ccc(C2CCN(C(=O)Cn3cc(NC(=O)CCOc4ccccc4)cn3)C2)cc1` (stereo not drawn) [Compound 18], less than 30%.

As for `Cc1ccc(OCCN(C)C(=O)Cn2cc(N(C)C(=O)[C@@H]3CCCC[C@@H]3c3ccccc3)cn2)cc1` [Compound 19], the activation at 10 µM was less than 30%. As for `Cc1ccc(N2CCCN(C(=O)Cn3cc(NC(=O)CCOc4ccccc4)cn3)CC2)cc1` [Compound 23], the figure is less than 30%.

For the compound `Cc1ccc(Oc2ccc(N(C)C(=O)Cn3cc(NC(=O)CCOc4ccccc4Cl)cn3)cc2)cc1` [Compound 24], the activation at 10 µM lay in the range of 30 to 50%. Consider `COc1ccccc1OCCC(=O)Nc1cnn(CC(=O)N(C)c2ccc(Oc3ccc(C)cc3)cc2)c1` [Compound 25], for which the activation at 10 µM was in the range of 30 to 50%. As for `Cc1ccc(Oc2ccc(N(C)C(=O)Cn3cc(NC(=O)CCOc4cccc(C)c4)cn3)cc2)cc1` [Compound 26], the figure is less than 30%; as for `Cc1ccc(OCCC(=O)Nc2cnn(CC(=O)N(C)c3ccc(Oc4ccc(C)cc4)cc3)c2)cc1` [Compound 27], less than 30%. For `Cc1ccc(C2CCCN(C(=O)Cn3cc(NC(=O)CCOc4ccccc4)cn3)C2)cc1` (stereo not drawn) [Compound 28] the value was less than 30%; for `O=C(CCOc1ccccc1)Nc1cnn(CC(=O)Nc2ccc(-n3cncn3)cc2)c1` [Compound 30], less than 30%; for `O=C(CCOc1ccccc1)Nc1cnn(CC(=O)Nc2ccc(C3CCCCC3)cc2)c1` [Compound 31], less than 30%.

`Cc1ccc(Oc2ccc(N(C)C(=O)Cn3cc(NC(=O)CCOc4ccccc4C)cn3)cc2)cc1` [Compound 32, N-(1-(2-(methyl(4-(p-tolyloxy)phenyl)amino)-2-oxoethyl)-1H-pyrazol-4-yl)-3-(o-tolyloxy)propanamide hydrochloride] showed an activation at 10 µM of less than 30%. For `O=C(CCOc1ccccc1)Nc1cnn(CC(=O)N2CCCN(c3ccc(F)cn3)CC2)c1` [Compound 33] the value was less than 30%. Compound `Cc1ccccc1OCCC(=O)Nc1cnn(CC(=O)N(C)c2ccc(Oc3ccccc3)cc2)c1` [Compound 34] came in with an activation at 10 µM of less than 30%.

For the compound `Cc1cccc(OCCC(=O)Nc2cnn(CC(=O)N(C)c3ccc(Oc4ccccc4)cc3)c2)c1` [Compound 35], the activation at 10 µM is less than 30%. As for `Cc1ccc(OC2CCCN(C(=O)Cn3cc(NC(=O)CCOc4ccccc4C)cn3)C2)cc1` (stereo not drawn) [Compound 36], the figure is not below 50%; as for `Cc1ccc(OCCC(=O)Nc2cnn(CC(=O)N3CCCC(Oc4ccc(C)cc4)C3)c2)cc1` (stereo not drawn) [Compound 37], 30 to 50%. As for `Cc1ccc(OC2CCCN(C(=O)Cn3cc(NC(=O)CCOc4ccc(Cl)cc4)cn3)C2)cc1` (stereo not drawn) [Compound 38], the figure is 30 to 50%; as for `Cc1ccc(OC2CCCN(C(=O)Cn3cc(NC(=O)CCOc4ccccc4Cl)cn3)C2)cc1` (stereo not drawn) [Compound 39], not below 50%; as for `COc1ccccc1OCCC(=O)Nc1cnn(CC(=O)N2CCCC(Oc3ccc(C)cc3)C2)c1` (stereo not drawn) [Compound 40], 30 to 50%. For `COc1ccc(OCCC(=O)Nc2cnn(CC(=O)N3CCCC(Oc4ccc(C)cc4)C3)c2)cc1` (stereo not drawn) [Compound 41, 3-(4-methoxyphenoxy)-N-(1-(2-oxo-2-(3-(p-tolyloxy)piperidin-1-yl)ethyl)-1H-pyrazol-4-yl)propanamide hydrochloride] the value was less than 30%; for `CN(C(=O)Cn1cc(NC(=O)CCOc2ccccc2)cn1)c1ccc(Oc2ccc(C(F)(F)F)cc2)cc1` [Compound 42, N-(1-(2-(methyl(4-(4-(trifluoromethyl)phenoxy)phenyl)amino)-2-oxoethyl)-1H-pyrazol-4-yl)-3-phenoxypropanamide hydrochloride], less than 30%. For the compound `Cc1cccc(OCCC(=O)Nc2cnn(CC(=O)N(C)c3ccccc3Oc3ccccc3)c2)c1` [Compound 43], the activation at 10 µM was less than 30%.

Take `Cc1ccccc1OCCC(=O)Nc1cnn(CC(=O)N(C)c2ccccc2Oc2ccccc2)c1` [Compound 44]: the activation at 10 µM was less than 30%. For `Cc1ccc(C2CN(C(=O)Cn3cc(NC(=O)CCOc4ccccc4)cn3)CCN2C)cc1` (stereo not drawn) [Compound 45, N-(1-(2-(4-methyl-3-(p-tolyl)piperazin-1-yl)-2-oxoethyl)-1H-pyrazol-4-yl)-3-phenoxypropanamide] the value was less than 30%; for `COc1ccc(OCCC(=O)Nc2cnn(CC(=O)N3CCCCC(Oc4ccccc4)C3)c2)cc1` (stereo not drawn) [Compound 47], less than 30%. As for `Cc1ccc(OCCC(=O)Nc2cnn(CC(=O)N3CCCCC(Oc4ccccc4)C3)c2)cc1` (stereo not drawn) [Compound 48], the figure is less than 30%. `Cc1ccccc1OCCC(=O)Nc1cnn(CC(=O)N2CCCCC(Oc3ccccc3)C2)c1` (stereo not drawn) [Compound 49] showed an activation at 10 µM of less than 30%. As for `O=C(CCOc1ccc(Cl)cc1)Nc1cnn(CC(=O)N2CCCCC(Oc3ccccc3)C2)c1` (stereo not drawn) [Compound 50], the figure is less than 30%; as for `COc1ccccc1OCCC(=O)Nc1cnn(CC(=O)N2CCCCC(Oc3ccccc3)C2)c1` (stereo not drawn) [Compound 51], less than 30%; as for `O=C(CCOc1ccccc1)Nc1cnn(CC(=O)N2CCCN(Cc3ccncc3)CC2)c1` [Compound 52, N-(1-(2-oxo-2-(4-(pyridin-4-ylmethyl)-1,4-diazepan-1-yl)ethyl)-1H-pyrazol-4-yl)-3-phenoxypropanamide], less than 30%. As for `Cc1ccccc1OCCC(=O)Nc1cnn(CC(=O)N(C)c2ccc(Oc3ccc(C(F)(F)F)cc3)cc2)c1` [Compound 53], the figure is less than 30%. For `CN(C(=O)Cn1cc(NC(=O)CCOc2ccccc2)cn1)c1ccc(Oc2ccc(C(F)(F)F)cc2)c(F)c1` [Compound 54] the value was less than 30%; for `Cc1ccc(Oc2c(F)cc(N(C)C(=O)Cn3cc(NC(=O)CCOc4ccccc4)cn3)cc2F)cc1` [Compound 55], less than 30%; for `Cc1ccc(Oc2ccccc2N(C)C(=O)Cn2cc(NC(=O)CCOc3ccccc3)cn2)cc1` [Compound 57], less than 30%. `Cc1ccc(C(F)(F)c2ccc(N(C)C(=O)Cn3cc(NC(=O)CCOc4ccccc4)cn3)cc2)cc1` [Compound 58] yielded an activation at 10 µM of less than 30%. Turning to `Cc1ccc(C2=CC(C)(C)Oc3cc(N(C)C(=O)Cn4cc(NC(=O)CCOc5ccccc5)cn4)ccc32)cc1` [Compound 59, N-(1-(2-((2,2-dimethyl-4-(p-tolyl)-2H-chromen-7-yl)(methyl)amino)-2-oxoethyl)-1H-pyrazol-4-yl)-3-phenoxypropanamide], the activation at 10 µM is less than 30%.

As for `Cc1ccc(OCCN(C)C(=O)Cn2cc(NC(=O)C3COc4ccccc4C3)cn2)cc1` (stereo not drawn) [Compound 60], the activation at 10 µM is less than 30%.

Take `Cc1ccc(OCCN(C)C(=O)Cn2cc(NC(=O)C3CCCN(c4ccccc4)C3)cn2)cc1` (stereo not drawn) [Compound 61]: the activation at 10 µM is less than 30%. For `COc1ccc2c(c1)CC(C(=O)Nc1cnn(CC(=O)N(C)CCOc3ccc(C)cc3)c1)CO2` (stereo not drawn) [Compound 63] the value was less than 30%.
